Laboratory results taken from US20020028936A1, “1,3-disubstituted indolin-2-ones for neoplasia” (priority 1999, published 2002).

How the values were obtained:
[1] = molecular target: T1, purified cyclooxygenase Type I (Ovis aries, UniProt P05979); assay: Cyclooxygenase (COX) inhibition, purified COX; format: biochemical; conditions: 100 μM compound; COX purified from ram seminal vesicles; arachidonic acid 100 μM, 2.0 min at 37° C.
T1 construct: The COX was purified from ram seminal vesicles; from tissue; host or cells: ram seminal vesicles
T1 sequence (P05979 25-600): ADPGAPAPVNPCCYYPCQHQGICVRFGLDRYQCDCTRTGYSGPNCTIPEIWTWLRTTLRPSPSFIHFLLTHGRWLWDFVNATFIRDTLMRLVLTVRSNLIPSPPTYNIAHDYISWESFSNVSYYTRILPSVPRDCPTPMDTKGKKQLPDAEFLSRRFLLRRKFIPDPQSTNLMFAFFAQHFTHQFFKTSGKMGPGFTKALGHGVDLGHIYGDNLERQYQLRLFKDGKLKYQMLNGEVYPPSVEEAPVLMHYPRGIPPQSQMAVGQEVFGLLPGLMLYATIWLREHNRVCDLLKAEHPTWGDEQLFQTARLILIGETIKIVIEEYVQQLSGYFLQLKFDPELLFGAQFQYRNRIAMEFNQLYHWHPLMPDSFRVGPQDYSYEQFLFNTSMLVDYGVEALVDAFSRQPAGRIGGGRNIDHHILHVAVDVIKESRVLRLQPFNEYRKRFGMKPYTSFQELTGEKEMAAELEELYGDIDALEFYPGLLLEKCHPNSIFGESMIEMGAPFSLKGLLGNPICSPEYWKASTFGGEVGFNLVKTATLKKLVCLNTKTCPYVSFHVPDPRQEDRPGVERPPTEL
Method: The assay was terminated by the addition of TCA, and COX activity was determined by absorbance at 530 nm.

[2] = test system: human colon carcinoma cell line, HT-29; assay: Growth inhibition, Sulforhodamine B (SRB) protein binding assay; format: cell-based; conditions: HT-29 cells, six days continuous exposure, read-out: IC50 value (concentration of drug needed to inhibit tumor cell growth by 50%)
Method: The compound of Example No. 1 was assayed for their growth inhibitory activity on the human colon carcinoma cell line, HT-29 obtained from ATCC (Rockville, Md.), to ascertain the degree of growth inhibition. Growth inhibition of this cell line is indicative of a benefit on precancerous lesions and neoplasms. The cell line and growth inhibition assay employed for such experiments are well characterized, and are used to evaluate the anti-neoplastic properties of substances. The assay is used by the United States National Cancer Institute in its screening program for new anti-cancer drugs.
Drug stock solutions were made in 100% DMSO and were then diluted with RPMI media for cell culture testing. All drug solutions were prepared fresh on the day of testing. The cultured cells were obtained at passage #99 and grown in RPMI media supplemented with 5% fetal calf serum, and 2 mM glutamine, 100 U/ml penicillin, […] streptomycin, and 0.25 μg/ml amphotericin. The cultures were maintained in a humidified atmosphere of 95% air and 5% CO2 at 37° C. The cultures were passaged at preconfluent densities using a solution of 0.05% trypsin and 0.53 mM EDTA. […]
Tumor cell growth inhibition was assessed using the Sulforhodamine B (SRB) protein binding assay. […] The dye was then solubilized, and the optical density of the resulting solution was determined on a 96-well plate reader. […]

[3] = test system: SW-480 colon adenocarcinoma cells; assay: Apoptosis, DNA fragmentation (Cell Death Detection ELISA plus); format: cell-based; conditions: at 100 μM; SW-480 cells, 48 hrs incubation
Method: Apoptosis was measured based on the amount of fragmented DNA contained in cell lysates. Briefly, SW-480 colon adenocarcinoma cells were plated in 96-well microtitre plates (“MTP”) at a density of 10K cells/well in 180 μl and were incubated for 24 hrs. Cells were then treated with 20 μl aliquots of appropriately diluted compound, and allowed to incubate for an additional 48 hrs.
After the incubation, samples were prepared according to the following steps. The MTP was centrifuged (15 min., 1000 rpm) and the supernatant was carefully removed by fast inversion of the MTP. […] Samples were analyzed immediately, because storage at 4° C. or −20° C. reduces the ELISA-signals.
Samples were then processed according to a DNA fragmentation assay protocol, and dose-response curves were generated based on optical density readings. Quantification of DNA was done by a commercially available photometric enzyme-immunoassay manufactured by Mannheim-Boehringer under the name “Cell Death Detection ELISA^plus”. The assay is based on a quantitative sandwich-enzyme-immunoassay-principle using mouse monoclonal antibodies directed against DNA and histones, respectively. […] After removal of unbound antibodies by a washing step, the amount of nucleosomes is quantified by the POD retained in the immunocomplex. POD is determined photometrically with ABTS® (2,2′-Azino-di[3-ethylbenzthiazolin-sulfonate) as substrate. […]

O=C1C(=Cc2ccccc2)c2ccccc2N1Cc1ccc(F)cc1 [Example 1, (Z, E) 1-(4-Fluorobenzyl)-3-Benzylidene-Indolin-2-One]
COX I % Inhibition (100 μM) [1]: <25%
IC50 [2]: ~7.3 µM
fold stimulation (apoptosis, fragmented DNA) [3]: 6 fold
